{"source": "patent US11292796B2", "about": "(SIGNAL PHARMACEUTICALS, LLC, priority 2008, dated 2022)"}
{"target": "T1, mTOR (Homo sapiens, UniProt P42345)", "T1 construct": "purchased Invitrogen PR8683A", "T1 sequence (P42345 1360-2549 limits assumed)": "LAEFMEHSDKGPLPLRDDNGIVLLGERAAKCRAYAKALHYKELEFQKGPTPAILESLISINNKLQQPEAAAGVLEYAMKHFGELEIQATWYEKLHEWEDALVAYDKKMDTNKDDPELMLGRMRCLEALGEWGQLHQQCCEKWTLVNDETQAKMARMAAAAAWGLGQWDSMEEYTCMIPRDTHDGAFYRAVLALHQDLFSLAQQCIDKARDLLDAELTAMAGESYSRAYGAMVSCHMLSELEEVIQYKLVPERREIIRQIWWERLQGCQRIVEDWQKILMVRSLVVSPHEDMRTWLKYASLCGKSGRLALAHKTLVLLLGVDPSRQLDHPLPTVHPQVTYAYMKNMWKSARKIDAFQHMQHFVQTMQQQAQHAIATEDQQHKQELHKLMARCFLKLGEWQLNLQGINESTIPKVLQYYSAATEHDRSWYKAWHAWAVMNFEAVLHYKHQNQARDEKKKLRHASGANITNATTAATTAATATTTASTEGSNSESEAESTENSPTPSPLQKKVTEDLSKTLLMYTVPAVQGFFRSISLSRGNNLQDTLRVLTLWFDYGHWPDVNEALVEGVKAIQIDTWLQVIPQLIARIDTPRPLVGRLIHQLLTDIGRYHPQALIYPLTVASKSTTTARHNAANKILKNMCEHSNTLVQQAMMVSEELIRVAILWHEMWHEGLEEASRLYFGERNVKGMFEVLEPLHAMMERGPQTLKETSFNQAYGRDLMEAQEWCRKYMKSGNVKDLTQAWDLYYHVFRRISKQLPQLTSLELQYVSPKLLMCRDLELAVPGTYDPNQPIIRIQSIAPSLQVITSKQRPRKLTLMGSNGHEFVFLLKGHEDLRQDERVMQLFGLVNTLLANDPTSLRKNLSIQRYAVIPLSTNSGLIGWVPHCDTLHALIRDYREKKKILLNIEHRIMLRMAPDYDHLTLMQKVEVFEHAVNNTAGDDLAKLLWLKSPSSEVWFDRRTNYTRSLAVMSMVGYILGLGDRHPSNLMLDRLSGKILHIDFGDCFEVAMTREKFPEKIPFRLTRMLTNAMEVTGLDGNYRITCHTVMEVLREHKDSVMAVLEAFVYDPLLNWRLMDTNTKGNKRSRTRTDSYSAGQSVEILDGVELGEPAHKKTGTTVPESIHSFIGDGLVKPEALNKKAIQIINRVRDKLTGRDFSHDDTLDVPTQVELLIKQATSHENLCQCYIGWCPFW", "assay": "mTOR HTR-FRET assay", "assay_type": "biochemical", "settings": "read-out: Act. Level (IC50 in mTor HTR-FRET assay)", "procedure": "The following is an example of an assay that can be used to determine the mTOR inhibitory activity of a test compound. Heteroaryl Compounds were dissolved in DMSO and prepared as 10 mM stocks and diluted appropriately for the experiments. Reagents were prepared as follows:\n“Simple TOR buffer” (used to dilute high glycerol TOR fraction): 10 mM Tris pH 7.4, 100 mM NaCl, 0.1% Tween-20, 1 mM DTT. Invitrogen mTOR (cat #PR8683A) was diluted in this buffer to an assay concentration of 0.200 μg/mL.\nTo 20 μL of the Simple mTor buffer is added 0.5 μL of test compound in DMSO. To initiate the reaction 5 μL of ATP/Substrate solution was added to 20 μL of the Simple TOR buffer solution (control) and to the compound solution prepared above.", "units": {"IC50": "nM"}}
{"smiles": "CO[C@H]1CC[C@H](CN2CC(=O)Nc3ncc(-c4ccc(C(C)(C)O)nc4)nc32)C1", "note": "[Example 53, 6-(6-(2-hydroxypropan-2-yl)pyridin-3-yl)-4-(((1S,3S)-3-methoxycyclopentyl)methyl)-3,4-dihydropyrazino[2,3-b]pyrazin-2(1H)-one]", "IC50": "0.005 to 250"}
{"smiles": "CC(C)(O)c1ccc(-c2cnc3c(n2)N([C@H]2CC[C@@H](O)CC2)CC(=O)N3)cn1", "note": "[Example 102, 4-(cis-4-hydroxycyclohexyl)-6-(6-(2-hydroxypropan-2-yl)pyridin-3-yl)-3,4-dihydropyrazino[2,3-b]pyrazin-2(1H)-one]", "IC50": "250 to 500"}
{"smiles": "C[C@@H]1Nc2ncc(-c3ccc(C(C)(C)O)nc3)nc2N(CCC2CCOCC2)C1=O", "note": "[Example 267, (S)-7-(6-(2-hydroxypropan-2-yl)pyridin-3-yl)-3-methyl-1-(2-(tetrahydro-2H-pyran-4-yl)ethyl)-3,4-dihydropyrazino[2,3-b]pyrazin-2(1H)-one]", "IC50": "500 to 1000"}
{"smiles": "O=C1CNc2ncc(-c3ccnc(O)c3)nc2N1CCC1CCOCC1", "note": "[Example 178, 7-(2-hydroxypyridin-4-yl)-1-(2-(tetrahydro-2H-pyran-4-yl)ethyl)-3,4-dihydropyrazino[2,3-b]pyrazin-2(1H)-one]", "IC50": "500 to 1000"}
{"smiles": "Cc1cc(-c2cnc3c(n2)N(CC2CCOCC2)C(=O)CN3)cc2[nH]c(=O)[nH]c12", "note": "[Example 238, 7-(7-methyl-2-oxo-2,3-dihydro-1H-benzo[d]imidazol-5-yl)-1-((tetrahydro-2H-pyran-4-yl)methyl)-3,4-dihydropyrazino[2,3-b]pyrazin-2(1H)-one]", "IC50": "500 to 1000"}
{"smiles": "N#Cc1cccc(-c2cnc3c(n2)N(CCC2CCOCC2)CC(=O)N3)c1", "note": "[Example 34, 3-(6-oxo-8-(2-(tetrahydro-2H-pyran-4-yl)ethyl)-5,6,7,8-tetrahydropyrazino[2,3-b]pyrazin-2-yl)benzonitrile]", "IC50": "500 to 1000"}
{"smiles": "O=C1CNc2ncc(-c3cccnc3)nc2N1CCC1CCOCC1", "note": "[Example 187, 7-(pyridin-3-yl)-1-(2-(tetrahydro-2H-pyran-4-yl)ethyl)-3,4-dihydropyrazino[2,3-b]pyrazin-2(1H)-one]", "IC50": "500 to 1000"}
{"smiles": "Cc1cc(-c2nnc[nH]2)ccc1-c1cnc2c(n1)NCC(=O)N2", "note": "[Example 73, 6-(2-methyl-4-(4H-1,2,4-triazol-3-yl)phenyl)-3,4-dihydropyrazino[2,3-b]pyrazin-2(1H)-one]", "IC50": "250 to 500"}
{"smiles": "O=C1CNc2ncc(-c3ccc(-c4nc[nH]n4)nc3)nc2N1C[C@H]1CC[C@@H](O)CC1", "note": "[Example 169, 7-(6-(1H-1,2,4-triazol-3-yl)pyridin-3-yl)-1-((cis-4-hydroxycyclohexyl)methyl)-3,4-dihydropyrazino[2,3-b]pyrazin-2(1H)-one]", "IC50": "0.005 to 250"}
{"smiles": "CO[C@@H]1CC[C@@H](N2CC(=O)Nc3ncc(-c4ccc(C(C)(C)O)nc4)nc32)C1", "note": "[Example 56, 6-(6-(2-hydroxypropan-2-yl)pyridin-3-yl)-4-((1R,3R)-3-methoxycyclopentyl)-3,4-dihydropyrazino[2,3-b]pyrazin-2(1H)-one]", "IC50": "0.005 to 250"}
{"smiles": "Cc1nc(-c2nnc[nH]2)ccc1-c1cnc2c(n1)N(C)C(=O)CN2", "note": "[Example 197, 1-methyl-7-(2-methyl-6-(4H-1,2,4-triazol-3-yl)pyridin-3-yl)-3,4-dihydropyrazino[2,3-b]pyrazin-2(1H)-one]", "IC50": "0.005 to 250"}
{"smiles": "COCC(=O)N1CCN2c3nc(-c4ccc(-c5nnc[nH]5)cc4C)cnc3NC(=O)C2C1", "note": "(stereo not drawn) [Example 96, 9-(4-(4H-1,2,4-triazol-3-yl)-2-methylphenyl)-3-(2-methoxyacetyl)-6,11,4a-trihydropiperazino[1,2-e]pyrazino[2,3-b]pyrazin-5-one]", "IC50": "0.005 to 250"}
{"smiles": "CO[C@H]1CC[C@@H](N2C(=O)CNc3ncc(-c4ccc(-c5nc[nH]n5)nc4)nc32)CC1", "note": "[Example 151, 7-(6-(1H-1,2,4-triazol-3-yl)pyridin-3-yl)-1-(cis-4-methoxycyclohexyl)-3,4-dihydropyrazino[2,3-b]pyrazin-2(1H)-one]", "IC50": "0.005 to 250"}
{"smiles": "O=C1CN(CCC2CCOCC2)c2nc(-c3cnc4[nH]ccc4c3)cnc2N1", "note": "[Example 43, 6-(1H-pyrrolo[2,3-b]pyridin-5-yl)-4-(2-(tetrahydro-2H-pyran-4-yl)ethyl)-3,4-dihydropyrazino[2,3-b]pyrazin-2(1H)-one]", "IC50": "0.005 to 250"}
{"smiles": "CC(C)(O)c1ccc(-c2cnc3c(n2)N(Cc2cccc(C(F)(F)F)c2)CC(=O)N3)cn1", "note": "[Example 137, 6-(6-(2-hydroxypropan-2-yl)pyridin-3-yl)-4-(3-(trifluoromethyl)benzyl)-3,4-dihydropyrazino[2,3-b]pyrazin-2(1H)-one]", "IC50": "0.005 to 250"}
{"smiles": "CO[C@H]1CC[C@@H](CN2C(=O)CNc3ncc(-c4ccc(-c5nc[nH]n5)nc4)nc32)CC1", "note": "[Example 155, 7-(6-(1H-1,2,4-triazol-3-yl)pyridin-3-yl)-1-((cis-4-methoxycyclohexyl)methyl)-3,4-dihydropyrazino[2,3-b]pyrazin-2(1H)-one]", "IC50": "0.005 to 250"}
{"smiles": "O=C1Nc2ncc(-c3ccc(-c4nnc[nH]4)nc3)nc2N2CCOCC12", "note": "(stereo not drawn) [Example 92, 9-(6-(4H-1,2,4-triazol-3-yl)-3-pyridyl)-6,11,4a-trihydromorpholino[4,3-e]pyrazino[2,3-b]pyrazin-5-one]", "IC50": "500 to 1000"}
{"smiles": "CC(C)(O)c1ccc(-c2cnc3c(n2)N(CC2CCCC2)C(=O)CN3)cn1", "note": "[Example 251, 1-(cyclopentylmethyl)-7-(6-(2-hydroxypropan-2-yl)pyridin-3-yl)-3,4-dihydropyrazino[2,3-b]pyrazin-2(1H)-one]", "IC50": "500 to 1000"}
{"smiles": "Cc1nc(-c2nc[nH]n2)ccc1-c1cnc2c(n1)N(CCO)C(=O)CN2", "note": "[Example 274, 1-(2-hydroxyethyl)-7-(2-methyl-6-(1H-1,2,4-triazol-3-yl)pyridin-3-yl)-3,4-dihydropyrazino[2,3-b]pyrazin-2(1H)-one]", "IC50": "0.005 to 250"}
{"smiles": "COCCN1CC(=O)Nc2ncc(-c3ccc(-c4nc[nH]n4)nc3)nc21", "note": "[Example 16]", "IC50": "0.005 to 250"}
{"smiles": "O=C1CN(CCC2CCOCC2)c2nc(-c3ccc4cn[nH]c4c3)cnc2N1", "note": "[Example 37, 6-(1H-indazol-6-yl)-4-(2-(tetrahydro-2H-pyran-4-yl)ethyl)-3,4-dihydropyrazino[2,3-b]pyrazin-2(1H)-one]", "IC50": "1000 to 10000"}
{"smiles": "COCCN1C(=O)CNc2ncc(-c3ccc4cn[nH]c4c3)nc21", "note": "[Example 189, 7-(1H-indazol-6-yl)-1-(2-methoxyethyl)-3,4-dihydropyrazino[2,3-b]pyrazin-2(1H)-one]", "IC50": "1000 to 10000"}
{"smiles": "COCCN1CC(=O)Nc2ncc(-c3ccc(-c4nnc[nH]4)c(F)c3)nc21", "note": "[Example 59, 6-(3-fluoro-4-(4H-1,2,4-triazol-3-yl)phenyl)-4-(2-methoxyethyl)-3,4-dihydropyrazino[2,3-b]pyrazin-2(1H)-one]", "IC50": "0.005 to 250"}
{"smiles": "O=C1CN(C[C@H]2CCCO2)c2nc(-c3ccc(-c4nnc[nH]4)cc3)cnc2N1", "note": "[Example 67, (R)-6-(4-(4H-1,2,4-triazol-3-yl)phenyl)-4-((tetrahydrofuran-2-yl)methyl)-3,4-dihydropyrazino[2,3-b]pyrazin-2(1H)-one]", "IC50": "0.005 to 250"}
{"smiles": "O=C1CNc2ncc(-c3ccc(-c4nc[nH]n4)nc3)nc2N1[C@H]1CC[C@@H](O)CC1", "note": "[Example 160, 7-(6-(1H-1,2,4-triazol-3-yl)pyridin-3-yl)-1-(cis-4-hydroxycyclohexyl)-3,4-dihydropyrazino[2,3-b]pyrazin-2(1H)-one]", "IC50": "0.005 to 250"}
{"smiles": "CO[C@H]1CC[C@H](N2CC(=O)Nc3ncc(-c4ccc(-c5nnc[nH]5)nc4C)nc32)C1", "note": "[Example 41, 4-((1S,3S)-3-methoxycyclopentyl)-6-(2-methyl-6-(4H-1,2,4-triazol-3-yl)pyridin-3-yl)-3,4-dihydropyrazino[2,3-b]pyrazin-2(1H)-one]", "IC50": "0.005 to 250"}
{"smiles": "Cc1nc(-c2nnc[nH]2)ccc1-c1cnc2c(n1)N(CC1CCOCC1)C(C)(C)C(=O)N2", "note": "[Example 74, 3,3-dimethyl-6-(2-methyl-6-(4H-1,2,4-triazol-3-yl)pyridin-3-yl)-4-((tetrahydro-2H-pyran-4-yl)methyl)-3,4-dihydropyrazino[2,3-b]pyrazin-2(1H)-one]", "IC50": "0.005 to 250"}
{"smiles": "Cc1cc(-c2nc[nH]n2)c(F)cc1-c1cnc2c(n1)N(C1CCOCC1)CC(=O)N2", "note": "[Example 24, 6-(5-fluoro-2-methyl-4-(1H-1,2,4-triazol-3-yl)phenyl)-4-(tetrahydro-2H-pyran-4-yl)-3,4-dihydropyrazino[2,3-b]pyrazin-2(1H)-one]", "IC50": "0.005 to 250"}
{"smiles": "COCCN1C(=O)CNc2ncc(-c3cccc4[nH]ncc34)nc21", "note": "[Example 188, 7-(1H-indazol-4-yl)-1-(2-methoxyethyl)-3,4-dihydropyrazino[2,3-b]pyrazin-2(1H)-one]", "IC50": "1000 to 10000"}
{"smiles": "COCCCN1CC(=O)Nc2ncc(-c3ccc(C(C)(C)O)nc3)nc21", "note": "[Example 114, 6-(6-(2-hydroxypropan-2-yl)pyridin-3-yl)-4-(3-methoxypropyl)-3,4-dihydropyrazino[2,3-b]pyrazin-2(1H)-one]", "IC50": "1000 to 10000"}
{"smiles": "CO[C@H]1CC[C@@H](CN2CC(=O)Nc3ncc(-c4ccc(-c5nc[nH]n5)nc4)nc32)CC1", "note": "[Example 7]", "IC50": "0.005 to 250"}
{"smiles": "CO[C@H]1CC[C@@H](CN2C(=O)CNc3ncc(-c4cnc(C(N)=O)cc4C)nc32)CC1", "note": "[Example 200, 5-(8-((cis-4-methoxycyclohexyl)methyl)-7-oxo-5,6,7,8-tetrahydropyrazino[2,3-b]pyrazin-2-yl)-4-methylpicolinamide]", "IC50": "1000 to 10000"}
{"smiles": "CC(C)(O)c1ccc(-c2cnc3c(n2)N(CCC2CCOCC2)C(C)(C)C(=O)N3)cn1", "note": "[Example 85, 6-(6-(2-hydroxypropan-2-yl)pyridin-3-yl)-3,3-dimethyl-4-(2-(tetrahydro-2H-pyran-4-yl)ethyl)-3,4-dihydropyrazino[2,3-b]pyrazin-2(1H)-one]", "IC50": "500 to 1000"}
